Measurements from PMC7413254 (Nature Communications, 2020).
Read-outs that look alike come from different tables or passages of the source.

Legend:
[1] = biological target: T1, PfCRT^3D7 (Plasmodium falciparum, UniProt Q8IBZ9); assay: cell-based; format: cell-based; conditions: total [3H]CQ transport; for inhibition at 500 µM: [test solute] = 0.5 mM; for inhibition at 1000 µM: [test solute] = 1 mM; for inhibition at 2000 µM: [test solute] = 2 mM
Procedure, shortened: (§1)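 Assay buffer ND96 (10 mM MES, 10 mM Tris-base) held at pH 5.5 to mimic vacuole lumen; uptake measured inward from this acidic medium over 1.5 h at 27.5 °C.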

[2] = test system: PfCRT; assay: Potential co-substrates tested for influx of VF-6 via PfCRT into the oocyte; format: cell-based, Plasmodium falciparum; parameters: key: X: Compounds that have been tested as potential co-substrates but are not required for influx of VF-6 via PfCRT into the oocyte
[3] = biological target: T2, PfCRT^Ecu1110 (Plasmodium falciparum, UniProt Q9N623, A220S/I356L/K76T/N326D); assay: [3H]CQ uptake into Xenopus oocytes, cis-inhibition by unlabelled solute; format: cell-based
Procedure, shortened: as §1

[4] = biological target: T3, PfCRT^Dd2 (Plasmodium falciparum, UniProt Q9N623, A220S/I356T/K76T/M74I/N326S/N75E/Q271E/R371I); assay: as above; format: cell-based
Procedure, shortened: as §1

[5] = test system: non-expressing oocytes; assay: cells; format: cell-based, Xenopus laevis; conditions: Xenopus laevis, total [3H]CQ transport; for inhibition at 500 µM: [test solute] = 0.5 mM; for inhibition at 1000 µM: [test solute] = 1 mM; for inhibition at 2000 µM: [test solute] = 2 mM
Procedure, shortened: as §1

[6] = test system: non-expressing oocytes; format: cell-based, Xenopus laevis; conditions: total [3H]CQ transport; for Uptake of [3H]CQ (% non-expressing oocyte control), trans-stimulation: non-expressing oocytes, normalised to the oocyte type control; for Uptake of [3H]CQ (% PfCRTDd2 control), trans-stimulation, non-expressing oocytes: mean ± SEM, SEM
Procedure, shortened: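 Oocytes (ten per treatment, ≥4 independent frogs/days) were preloaded by injecting VF-6 in 25 nL ND96 at pH 5.0, 5.5, 6.0 or 7.0, or Na^+-free choline buffer, then uptake run 1.5 h, 27.5 °C, ND96 pH 5.5 by default. Internal concentrations assumed ~400 nL oocyte volume.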

[7] = biological target: T1, PfCRT^3D7; assay: cell-based; format: cell-based
Procedure, shortened: (§2)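 Transport measured in Xenopus oocytes expressing the transporters, 1.5 h at 27.5 °C in ND96 pH 5.5 unless noted. For trans-stimulation, VF-6 injected in 25 nL ND96 at pH 5.0–7.0 or Na^+-free (choline) buffer; intracellular levels based on ~400 nL oocyte volume. Ten oocytes per treatment, ≥4 experiments.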

[8] = biological target: T4, PfNT1 (Plasmodium falciparum, UniProt Q8IDM6); assay: cell-based; format: cell-based; conditions: for activity at 5000 µM: total [3H]CQ transport
T4 construct: expressed in transfected cells; host or cells: Xenopus laevis oocytes (stage V-VI), cRNA-injected
Procedure, shortened: as §2

[9] = biological target: T2, PfCRT^Ecu1110; assay: cell-based; format: cell-based; conditions: […]
Procedure, shortened: as §2

[10] = biological target: T3, PfCRT^Dd2; assay: cell-based; format: cell-based; conditions: […]; for activity at 45000 µM: [test solute]i = 45 mM (30 mM for some solutes due to solubility)
Procedure, shortened: as §2

[11] = test system: PfCRT; assay: Influx of VF-6 via PfCRT into the oocyte, solutes tested as potential co-substrates; format: cell-based, Plasmodium falciparum; parameters: key: X: Compounds that have been tested as potential co-substrates but are not required for influx of VF-6 via PfCRT into the oocyte; conditions: X marks the solute
[12] = PfCRT3D7 oocytes, normalised to the oocyte type control, read-out: Uptake of [3H]CQ (% PfCRT3D7 control), cis-inhibition
[13] = mean ± SEM, SEM, read-out: Uptake of [3H]CQ (% PfCRTDd2 control), cis-inhibition, PfCRT3D7
[14] = read-out: PfCRT-mediated [3H]CQ transport, cis-inhibition (% PfCRTEcu1110 control)
[15] = read-out: Uptake of [3H]CQ (% PfCRTDd2 control), cis-inhibition, PfCRTEcu1110, SEM
[16] = read-out: Uptake of [3H]CQ (% PfCRTEcu1110 control), cis-inhibition
[17] = read-out: [3H]CQ transport (% PfCRTEcu1110 control), cis-inhibition, PfCRTEcu1110, SEM
[18] = read-out: PfCRT-mediated [3H]CQ transport, cis-inhibition (% PfCRTDd2 control)
[19] = read-out: Uptake of [3H]CQ (% PfCRTDd2 control), cis-inhibition
[20] = read-out: Uptake of [3H]CQ (% PfCRTDd2 control), cis-inhibition, PfCRTDd2, SEM
[21] = read-out: [3H]CQ transport (% PfCRTDd2 control), cis-inhibition, PfCRTDd2, SEM
[22] = Oocyte, mean ± SEM, SEM, read-out: Uptake of [3H]CQ (% PfCRTDd2 control), cis-inhibition, non-expressing oocytes
[23] = non-expressing oocytes, normalised to the oocyte type control, read-out: Uptake of [3H]CQ (% non-expressing oocyte control), cis-inhibition

T4 sequence (Q8IDM6 whole entry): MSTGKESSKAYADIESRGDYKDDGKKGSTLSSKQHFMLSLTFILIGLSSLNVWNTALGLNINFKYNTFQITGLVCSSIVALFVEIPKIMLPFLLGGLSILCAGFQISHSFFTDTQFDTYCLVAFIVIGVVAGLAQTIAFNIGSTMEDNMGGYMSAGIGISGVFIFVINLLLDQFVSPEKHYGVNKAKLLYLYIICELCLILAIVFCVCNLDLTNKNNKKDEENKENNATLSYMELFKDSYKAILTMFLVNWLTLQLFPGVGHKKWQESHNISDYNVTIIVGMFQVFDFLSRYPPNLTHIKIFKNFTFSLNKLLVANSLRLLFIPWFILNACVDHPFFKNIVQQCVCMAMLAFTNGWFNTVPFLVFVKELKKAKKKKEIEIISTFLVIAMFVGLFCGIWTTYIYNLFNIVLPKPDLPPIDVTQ
T1 sequence (Q8IBZ9 59-398): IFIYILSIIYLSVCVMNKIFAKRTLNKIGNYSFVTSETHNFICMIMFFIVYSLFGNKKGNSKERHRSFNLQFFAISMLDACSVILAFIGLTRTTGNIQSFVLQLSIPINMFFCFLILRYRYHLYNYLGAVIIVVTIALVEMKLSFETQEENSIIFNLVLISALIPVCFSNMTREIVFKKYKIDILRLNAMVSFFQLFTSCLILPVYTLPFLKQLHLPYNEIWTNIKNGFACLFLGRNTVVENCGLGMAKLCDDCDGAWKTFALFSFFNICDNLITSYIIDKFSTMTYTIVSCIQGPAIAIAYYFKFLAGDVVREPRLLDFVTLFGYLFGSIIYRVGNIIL
T2 sequence (Q9N623 whole entry A220S/I356L/K76T/N326D): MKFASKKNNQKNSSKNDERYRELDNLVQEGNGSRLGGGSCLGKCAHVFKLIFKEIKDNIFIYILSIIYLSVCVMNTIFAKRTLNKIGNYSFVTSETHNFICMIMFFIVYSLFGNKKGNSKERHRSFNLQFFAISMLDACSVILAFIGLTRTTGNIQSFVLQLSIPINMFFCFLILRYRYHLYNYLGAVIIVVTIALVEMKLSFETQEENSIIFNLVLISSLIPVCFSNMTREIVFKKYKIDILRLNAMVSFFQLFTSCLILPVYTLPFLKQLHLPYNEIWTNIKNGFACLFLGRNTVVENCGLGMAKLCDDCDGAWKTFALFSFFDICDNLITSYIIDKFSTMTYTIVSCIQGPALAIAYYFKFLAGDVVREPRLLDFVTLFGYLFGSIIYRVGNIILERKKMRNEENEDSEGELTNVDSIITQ
T3 sequence (Q9N623 whole entry A220S/I356T/K76T/M74I/N326S/N75E/Q271E/R371I): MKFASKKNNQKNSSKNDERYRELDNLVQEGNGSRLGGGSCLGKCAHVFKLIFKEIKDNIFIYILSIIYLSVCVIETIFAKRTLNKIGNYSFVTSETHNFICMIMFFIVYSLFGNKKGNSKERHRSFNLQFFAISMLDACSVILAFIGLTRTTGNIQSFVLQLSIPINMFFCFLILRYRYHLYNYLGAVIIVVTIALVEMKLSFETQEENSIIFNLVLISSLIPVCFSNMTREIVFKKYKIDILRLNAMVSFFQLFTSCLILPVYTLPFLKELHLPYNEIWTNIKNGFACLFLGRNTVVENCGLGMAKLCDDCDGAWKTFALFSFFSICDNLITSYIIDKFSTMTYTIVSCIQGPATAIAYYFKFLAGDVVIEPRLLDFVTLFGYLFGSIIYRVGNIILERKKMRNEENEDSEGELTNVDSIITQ

Compound: N=C(N)NCCC[C@H](N)C(=O)O [L-arginine]
- inhibition at 500 µM [1, 12]: 100 ± 4.2%
- inhibition at 1000 µM [1, 12]: 99 ± 5.7%
- inhibition at 2000 µM [1, 12]: 100 ± 5.3%
- inhibition at 500 µM [1, 13]: 2.4 ± 0.07%
- inhibition at 1000 µM [1, 13]: 2.9 ± 0.05%
- inhibition at 2000 µM [1, 13]: 3.3 ± 0.03%
- Tested as potential co-substrate but not required for influx of VF-6 via PfCRT into the oocyte [2]: X
- inhibition at 500 µM [3, 14]: 98 ± 2.5%
- inhibition at 1000 µM [3, 14]: 95 ± 3.5%
- inhibition at 2000 µM [3, 14]: 99 ± 1.6%
- inhibition at 500 µM [3, 15]: 33 ± 2.4%
- inhibition at 1000 µM [3, 15]: 32 ± 1%
- inhibition at 2000 µM [3, 15]: 33 ± 1.4%
- inhibition at 500 µM [3, 16]: 100 ± 4.3%
- inhibition at 1000 µM [3, 16]: 97 ± 6.2%
- inhibition at 2000 µM [3, 16]: 101 ± 3.6%
- inhibition at 500 µM [3, 17]: 30 ± 0.6%
- inhibition at 1000 µM [3, 17]: 29 ± 0.4%
- inhibition at 2000 µM [3, 17]: 30 ± 0.5%
- inhibition at 500 µM [4, 18]: 99 ± 3.2%
- inhibition at 1000 µM [4, 18]: 99 ± 2.6%
- inhibition at 2000 µM [4, 18]: 95 ± 2.4%
- inhibition at 500 µM [4, 19]: 101 ± 4.8%
- inhibition at 1000 µM [4, 19]: 101 ± 5.8%
- inhibition at 500 µM [4, 20]: 101 ± 4.8%
- inhibition at 1000 µM [4, 20]: 101 ± 5.8%
- inhibition at 2000 µM [4, 20]: 98 ± 3.5%
- inhibition at 500 µM [4, 21]: 99 ± 3.2%
- inhibition at 1000 µM [4, 21]: 99 ± 2.6%
- inhibition at 500 µM [5, 22]: 2.5 ± 0.06%
- inhibition at 1000 µM [5, 22]: 2.7 ± 0.06%
- inhibition at 2000 µM [5, 22]: 2.1 ± 0.1%
- inhibition at 500 µM [5, 23]: 99 ± 3.7%
- inhibition at 1000 µM [5, 23]: 99 ± 2.6%
- inhibition at 2000 µM [5, 23]: 98 ± 5.2%
- Uptake of [3H]CQ (% non-expressing oocyte control), trans-stimulation ([6]; [test solute]i = 5 mM): 97 ± 4.1 % non-expressing oocyte control
- Uptake of [3H]CQ (% non-expressing oocyte control), trans-stimulation ([6]; [test solute]i = 45 mM (30 mM for some solutes due to solubility)): 98 ± 3.9 % non-expressing oocyte control
- Uptake of [3H]CQ (% PfCRTDd2 control), trans-stimulation, non-expressing oocytes ([6]; [test solute]i = 5 mM (intracellular)): 2.7 ± 0.07 % PfCRTDd2 control
- Uptake of [3H]CQ (% PfCRTDd2 control), trans-stimulation, non-expressing oocytes ([6]; [test solute]i = 45 mM (intracellular; 30 mM for some solutes due to solubility)): 3.0 ± 0.01 % PfCRTDd2 control
- activity at 5000 µM ([7]; PfCRT3D7 oocytes, [test solute]i = 5 mM, total [3H]CQ transport, normalised to the oocyte type control, read-out: Uptake of [3H]CQ (% PfCRT3D7 control), trans-stimulation): 97 ± 2.2%
- [3H]CQ transport (% PfCRT3D7 control), trans-stimulation, PfCRT3D7 ([7]; SEM): 0.3 ± 0.02 % PfCRT3D7 control
- activity at 5000 µM ([7]; [test solute]i = 5 mM (intracellular), PfCRT3D7 oocytes, normalised to oocyte type control, read-out: PfCRT-mediated [3H]CQ transport, trans-stimulation (% PfCRT3D7 control)): 96 ± 3.7%
- activity at 45000 µM ([7]; SEM, read-out: Uptake of [3H]CQ (% PfCRTDd2 control), trans-stimulation, PfCRT3D7): 3.3 ± 0.02%
- activity at 45000 µM ([7]; read-out: PfCRT-mediated [3H]CQ transport, trans-stimulation (% PfCRT3D7 control)): 96 ± 3.1%
- activity at 45000 µM ([7]; read-out: Uptake of [3H]CQ (% PfCRT3D7 control), trans-stimulation): 98 ± 4.4%
- activity at 5000 µM ([7]; total [3H]CQ transport, [test solute]i = 5 mM (intracellular), mean ± SEM, SEM, read-out: Uptake of [3H]CQ (% PfCRTDd2 control), trans-stimulation, PfCRT3D7): 3.3 ± 0.06%
- activity at 5000 µM ([8]; PfNT1 oocytes, [test solute]i = 5 mM, normalised to the oocyte type control, read-out: Uptake of [3H]CQ (% PfNT1 control), trans-stimulation): 98 ± 3.8%
- activity at 45000 µM ([8]; SEM, read-out: Uptake of [3H]CQ (% PfCRTDd2 control), trans-stimulation, PfNT1): 3.1 ± 0.07%
- activity at 45000 µM ([8]; read-out: Uptake of [3H]CQ (% PfNT1 control), trans-stimulation): 98 ± 3.2%
- activity at 5000 µM ([8]; [test solute]i = 5 mM (intracellular), mean ± SEM, SEM, read-out: Uptake of [3H]CQ (% PfCRTDd2 control), trans-stimulation, PfNT1): 3.3 ± 0.03%
- activity at 5000 µM ([9]; pH 5.5, read-out: PfCRT-mediated [3H]CQ transport, trans-stimulation (% PfCRTEcu1110 control), [test solute]i = 5 mM (intracellular), PfCRTEcu1110 oocytes, normalised to oocyte type control): 98 ± 4.1%
- activity at 5000 µM ([9]; pH 5.5, read-out: Uptake of [3H]CQ (% PfCRTEcu1110 control), trans-stimulation, PfCRTEcu1110 oocytes, [test solute]i = 5 mM, total [3H]CQ transport, normalised to the oocyte type control): 100 ± 3.7%
- activity at 45000 µM ([9]; pH 5.5, read-out: Uptake of [3H]CQ (% PfCRTEcu1110 control), trans-stimulation, PfCRTEcu1110 oocytes, [test solute]i = 45 mM (30 mM for some solutes due to solubility), total [3H]CQ transport, normalised to the oocyte type control): 99 ± 2.5%
- activity at 5000 µM ([9]; read-out: Uptake of [3H]CQ (% PfCRTDd2 control), trans-stimulation, PfCRTEcu1110, total [3H]CQ transport, [test solute]i = 5 mM (intracellular), mean ± SEM, SEM): 36 ± 2.1%
- activity at 45000 µM ([9]; read-out: Uptake of [3H]CQ (% PfCRTDd2 control), trans-stimulation, PfCRTEcu1110, total [3H]CQ transport, [test solute]i = 45 mM (intracellular; 30 mM for some solutes due to solubility), mean ± SEM, SEM): 35 ± 2.2%
- activity at 5000 µM ([10]; pH 5.5, read-out: PfCRT-mediated [3H]CQ transport, trans-stimulation (% PfCRTDd2 control), [test solute]i = 5 mM (intracellular), PfCRTDd2 oocytes, normalised to oocyte type control): 98 ± 2.1%
- activity at 5000 µM ([10]; pH 5.5, read-out: Uptake of [3H]CQ (% PfCRTDd2 control), trans-stimulation, PfCRTDd2, total [3H]CQ transport, [test solute]i = 5 mM (intracellular), mean ± SEM, SEM): 100 ± 3.5%
- activity at 5000 µM ([10]; pH 5.5, read-out: Uptake of [3H]CQ (% PfCRTDd2 control), trans-stimulation, PfCRTDd2 oocytes, [test solute]i = 5 mM, total [3H]CQ transport, normalised to the oocyte type control): 100 ± 3.5%
- activity at 45000 µM ([10]; pH 5.5, read-out: Uptake of [3H]CQ (% PfCRTDd2 control), trans-stimulation, PfCRTDd2 oocytes, total [3H]CQ transport, normalised to the oocyte type control): 97 ± 4.2%
- activity at 5000 µM ([10]; pH 5.5, read-out: [3H]CQ transport (% PfCRTDd2 control), trans-stimulation, PfCRTDd2, trans-stimulation, [test solute]i = 5 mM (injected), PfCRT-mediated component (background subtracted), mean ± SEM, SEM): 98 ± 2.1%
- activity at 45000 µM ([10]; pH 5.5, read-out: [3H]CQ transport (% PfCRTDd2 control), trans-stimulation, PfCRTDd2, trans-stimulation, PfCRT-mediated component (background subtracted), mean ± SEM, SEM): 95 ± 2.5%
- Compounds that have been tested as potential co-substrates but are not required for influx of VF-6 via PfCRT into the oocyte [11]: X
